Values of other authors as cited in publication PMC7866862, “Screening, Optimization, and Bioavailability Research of Natural Deep Eutectic Solvent Extracts from Radix Pueraria” (Molecules, 2021).

What was measured:
[1] = parameters: method as in PMID 28165806
[2] = parameters: method as in PMID 30275390; details: oral, NSSPE study

O=c1c(-c2ccc(O)cc2)coc2c([C@@H]3O[C@H](CO)[C@@H](O)[C@H](O)[C@H]3O)c(O)ccc12 [PUE, 8-β-D-glucopyranose-4′,7-dihydroxyisoflavone]
Oral bioavailability of PUE [1]: about 7% | Cmax of PUE [2]: 634.17 ng/mL
